Measured values: ChEMBL document CHEMBL3046270, “Bleaching herbicide norflurazon inhibits phytoene desaturase by competition with the cofactors” (J Agric Food Chem, 2001)
Active and inactive are the calls of the source.

How the values were obtained:
[1] = molecular target: Phytoene desaturase (Gentiana lutea) (UniProt Q8W433); test: Competitive inhibition of Gentiana lutea desaturase using decyl plastoquinone as cofactor and phytoene as substrate at 0.1 uM after 2 hr by double reciprocal plot analysis
[2] = molecular target: 15-cis-phytoene desaturase (Synechococcus elongatus (strain PCC 7942) (Anacystis nidulans R2)) (UniProt P26294); test: Competitive inhibition of Synechococcus phytoene desaturase using decyl plastoquinone as cofactor and phytoene as substrate at 0.1 uM after 2 hr by double reciprocal plot analysis
[3] = molecular target: 15-cis-phytoene desaturase (Synechococcus elongatus (strain PCC 7942) (Anacystis nidulans R2)) (UniProt P26294); test: Competitive inhibition of Synechococcus phytoene desaturase using NADP as cofactor and phytoene as substrate at 0.1 uM after 2 hr by double reciprocal plot analysis

Measured: inhibition

Sequence of 15-cis-phytoene desaturase (Synechococcus elongatus (strain PCC 7942) (Anacystis nidulans R2)) (P26294 whole entry): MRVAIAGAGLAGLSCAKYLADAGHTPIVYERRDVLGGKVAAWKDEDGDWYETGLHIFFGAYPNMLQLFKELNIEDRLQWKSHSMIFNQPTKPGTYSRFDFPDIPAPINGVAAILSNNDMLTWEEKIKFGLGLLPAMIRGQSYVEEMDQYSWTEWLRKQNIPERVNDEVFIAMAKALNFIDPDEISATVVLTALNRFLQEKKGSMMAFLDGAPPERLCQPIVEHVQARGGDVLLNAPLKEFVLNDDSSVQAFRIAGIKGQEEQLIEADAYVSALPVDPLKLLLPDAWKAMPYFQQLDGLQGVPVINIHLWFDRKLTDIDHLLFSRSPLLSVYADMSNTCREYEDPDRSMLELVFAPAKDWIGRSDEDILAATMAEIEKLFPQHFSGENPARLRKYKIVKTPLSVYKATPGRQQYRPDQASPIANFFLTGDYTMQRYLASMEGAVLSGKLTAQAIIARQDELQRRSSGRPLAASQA
Sequence of Phytoene desaturase (Gentiana lutea) (Q8W433 as listed by the source): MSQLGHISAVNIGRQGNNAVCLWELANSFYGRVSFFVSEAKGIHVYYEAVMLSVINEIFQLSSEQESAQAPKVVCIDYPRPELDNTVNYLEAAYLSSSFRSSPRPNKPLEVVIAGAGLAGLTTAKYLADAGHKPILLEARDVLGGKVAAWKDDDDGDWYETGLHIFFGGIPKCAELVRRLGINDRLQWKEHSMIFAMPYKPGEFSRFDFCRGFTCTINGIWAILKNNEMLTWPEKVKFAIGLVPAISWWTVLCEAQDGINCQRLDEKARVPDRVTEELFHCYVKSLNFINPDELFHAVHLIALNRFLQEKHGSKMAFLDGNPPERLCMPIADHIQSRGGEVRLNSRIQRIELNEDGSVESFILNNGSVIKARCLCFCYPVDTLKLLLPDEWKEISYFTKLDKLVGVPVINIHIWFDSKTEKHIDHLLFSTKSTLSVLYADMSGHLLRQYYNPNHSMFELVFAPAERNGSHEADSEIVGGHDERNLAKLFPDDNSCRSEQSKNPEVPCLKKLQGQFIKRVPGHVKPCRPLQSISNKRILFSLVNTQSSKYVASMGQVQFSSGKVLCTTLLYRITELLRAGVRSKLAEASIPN

CNc1cnn(-c2cccc(C(F)(F)F)c2)c(=O)c1Cl
active: all assays above
